Data taken from the supplement of paper PMC5579334.
± gives the standard deviation of the averaged measurements.

Columns and labels:
[1] = test system: HS-PSS; experiment: drug sensitivity score (DSS, CellTiter-Glo viability, 72 h) (DSS (dimensionless)); higher = more sensitive; extreme values may be limits of the assay
Method in brief: (§1)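 Viability was scored by CellTiter-Glo ATP luminescence, scaled from vehicle to positive-control wells, with duplicates averaged where present. The cells, MPNST lines and primary human Schwann cells at 750–1000 per well, sat 72 h at 37 °C, 5% CO2, in 384-well plates preprinted with each compound at five concentrations in 10-fold steps. Four-parameter logistic fits were run on the data. These fits give drug sensitivity score and relative IC50 censored at the top concentration, and percent inhibition is reported at the top concentration.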

[2] = test system: HS-Sch-2; experiment: as above
Method in brief: as §1

[3] = test system: HSC1 (primary human Schwann cells); experiment: as above
Method in brief: as §1

[4] = test system: HSC2 (primary human Schwann cells); experiment: as above
Method in brief: as §1

[5] = test system: S1507-2; experiment: as above
Method in brief: as §1

[6] = test system: S462; experiment: as above
Method in brief: as §1

[7] = test system: ST8814; experiment: as above
Method in brief: as §1

[8] = test system: STS26T; experiment: as above
Method in brief: as §1

[9] = test system: YST-1; experiment: as above
Method in brief: as §1

[10] = test system: HS-PSS; experiment: drug sensitivity score (DSS, CellTox-Green cytotoxicity, 72 h) (DSS (dimensionless)); higher = more cytotoxic; extreme values may be limits of the assay
Method in brief: (§2)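 MPNST cell lines and primary human Schwann cells were incubated 72 h at 37 °C in 384-well plates holding five 10-fold compound dilutions. CellTox-Green was added before seeding at a final 1:1000 dilution and reported fluorescence from DNA released by disrupted cells. Signals were scaled to vehicle and positive-control wells, and cultures failing plate quality control were dropped. Drug sensitivity score and relative IC50 come from four-parameter logistic fits, with IC50 censored at the top concentration.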

[11] = test system: HSC1 (primary human Schwann cells); experiment: as above
Method in brief: as §2

[12] = test system: HSC2 (primary human Schwann cells); experiment: as above
Method in brief: as §2

[13] = test system: S1507-2; experiment: as above
Method in brief: as §2

[14] = test system: ST8814; experiment: as above
Method in brief: as §2

[15] = test system: STS26T; experiment: as above
Method in brief: as §2

[16] = test system: HS-PSS; experiment: % inhibition of CellTiter-Glo viability at highest tested concentration (72 h), relative to DMSO and benzethonium chloride controls; higher = more inhibition
Method in brief: as §1

[17] = test system: HS-Sch-2; experiment: as above
Method in brief: as §1

[18] = test system: HSC1 (primary human Schwann cells); experiment: as above
Method in brief: as §1

[19] = test system: HSC2 (primary human Schwann cells); experiment: as above
Method in brief: as §1

[20] = test system: S1507-2; experiment: as above
Method in brief: as §1

[21] = test system: S462; experiment: as above
Method in brief: as §1

[22] = test system: ST8814; experiment: as above
Method in brief: as §1

[23] = test system: STS26T; experiment: as above
Method in brief: as §1

[24] = test system: YST-1; experiment: as above
Method in brief: as §1

Row | SMILES | drug sensitivity score [1] | drug sensitivity score [2] | drug sensitivity score [3] | drug sensitivity score [4] | drug sensitivity score [5] | drug sensitivity score [6] | drug sensitivity score [7] | drug sensitivity score [8] | drug sensitivity score [9] | drug sensitivity score [10] | drug sensitivity score [11] | drug sensitivity score [12] | drug sensitivity score [13] | drug sensitivity score [14] | drug sensitivity score [15] | % inhibition [16] | % inhibition [17] | % inhibition [18] | % inhibition [19] | % inhibition [20] | % inhibition [21] | % inhibition [22] | % inhibition [23] | % inhibition [24]
1 | CCN(CC)CCNC(=O)c1c(C)[nH]c(/C=C2\C(=O)Nc3ccc(F)cc32)c1C [Sunitinib] (max concentration tested 1000 nM) | 0 | 0 | 0 | 0 | 0.923 ± 1.3 | 0.473 ± 0.41 | 0.732 | 0 | 0 | 0 | 0 | 0 | 17.2 ± 24 | 0 | 0 | 11.8% | 6.65% | -2.06% | -10.9% | 17.7 ± 11% | 16.1 ± 0.67% | 14.7% | 8.24% | -7.4%
2 | Cn1c(=O)c(F)c(Nc2ccc(I)cc2F)c2c(=O)n(C[C@@H](O)CO)cnc21 [TAK-733] (max concentration tested 1000 nM) | 4.36 | 5.75 | 6.66 | 6.21 | 7.362 ± 0.071 | 10.3 ± 0.6 | 9.73 | 6.24 | 0.48 | 0 | 0 | 0 | 2.13 ± 3 | 5.1 | 0.198 | 48.9% | 63% | 60.4% | 56.7% | 64.6 ± 1.8% | 76.5 ± 2.8% | 83.7% | 40.6% | 14.2%
3 | CCS(=O)(=O)c1cccc(-c2cc(C(=O)NC3CCN(C)CC3)c(C)c3[nH]c4ncc(C)cc4c23)c1 [TAK-901] (max concentration tested 1000 nM) | 5.46 | 3.76 | 7.19 | 8.24 | 1.99 ± 0.39 | 8.66 ± 0.25 | 3.64 | 7.82 | 10.1 | 0 | 0.0275 | 11 | 0 | 5.81 | 6.2 | 57.5% | 70.3% | 63.8% | 65.6% | 23.5 ± 3.2% | 80.6 ± 2.5% | 57.6% | 69.6% | 76.6%
4 | Cc1cc(C(C)Nc2ccccc2)c2nc(N3CCOCC3)cc(=O)n2c1 (configuration not stated) [TGX-221] (max concentration tested 10000 nM) | 0 | 0.19 | 0.168 | 0 | 3.32 ± 0.24 | 0.122 ± 0.17 | 1.34 | 4.31 | 0.99 | 0 | 0 | 0 | 0 | 0 | 0.376 | -2.49% | 12.3% | 16.5% | 6.57% | 28.4 ± 7.1% | 7.98 ± 6.7% | 21.4% | 41.7% | 26.6%
5 | Nc1nc(NC2CC2)cc(-c2cccc(Cl)c2Cl)n1 [TH588] (max concentration tested 25000 nM) | 3.03 | 7.91 | 4.07 | 5.92 | 6.86 | 6.18 | 9.42 | 9.6 | 7.77 | 0 | 4.29 | 4.06 | 5.61 | 7.43 | 9.84 | 35.1% | 87.8% | 55% | 67% | 78.2% | 98.2% | 100% | 102% | 79.4%
6 | CC(=O)Nc1ccc(C(=O)Nc2ccccc2N)cc1 [Tacedinaline] (max concentration tested 1000 nM) | 0 | 0 | 0 | 0 | 0 | 0 | 0 | 0 | 0 | 0 | 0 | 0 | 0 | 0 | 0 | 0.39% | -2.17% | 6.93% | 0.407% | 2.24 ± 3.5% | 6.18 ± 0.36% | -2.81% | 4.09% | 9.24%
7 | C=CC[C@@H]1/C=C(\C)C[C@H](C)C[C@H](OC)[C@H]2O[C@@](O)(C(=O)C(=O)N3CCCC[C@H]3C(=O)O[C@H](/C(C)=C/[C@@H]3CC[C@@H](O)[C@H](OC)C3)[C@H](C)[C@@H](O)CC1=O)[C@H](C)C[C@@H]2OC [Tacrolimus] (max concentration tested 10000 nM) | 0 | 0 | 0.469 | 0 | 0.168 ± 0.24 | 0 | 0.177 | 0 | 0 | 0 | 0 | 0 | 0 | 0 | 0 | 8.62% | -0.54% | 19.9% | 5.26% | 6.29 ± 12% | 1.38 ± 2.8% | 13.4% | 8.77% | 7.06%
8 | COc1cc(Nc2ncc(F)c(Nc3ccc4c(n3)NC(=O)C(C)(C)O4)n2)cc(OC)c1OC [Tamatinib] (max concentration tested 10000 nM) | 0 | 0.4 | 5.11 | 3.08 | 0 | 0 | 0.365 | 0.0251 | 0 | 0 | 0 | 0.0662 | 0.0129 ± 0.018 | 0.113 | 0.558 | 9.72% | 13.4% | 37.9% | 36.1% | -0.148 ± 3.2% | 4.27 ± 6.2% | 11.9% | 10.2% | -0.14%
9 | CC/C(=C(\c1ccccc1)c1ccc(OCCN(C)C)cc1)c1ccccc1 [Tamoxifen] (max concentration tested 10000 nM) | 2.37 | 4.43 | 0.133 | 2.59 | 1.29 ± 0.79 | 0.757 ± 0.86 | 3.39 | 0.653 | 1.24 | 0 | 0 | 0 | 3.75 ± 4.3 | 6.84 | 0.396 | 55.4% | 61.6% | 14.8% | 52.1% | 35.2 ± 12% | 24.9 ± 13% | 65.2% | 22% | 29.6%
10 | COc1cc2c(N3CCN(C(=O)Nc4ccc(OC(C)C)cc4)CC3)ncnc2cc1OCCCN1CCCCC1 [Tandutinib] (max concentration tested 1000 nM) | 0 | 0 | 0 | 0 | 0.0556 ± 0.079 | 0 | 0 | 0 | 0 | 0 | 0 | 0 | 0 | 0 | 0 | 7.75% | -3.01% | 2.98% | -9.62% | 9.56 ± 1.9% | 0.414 ± 5.6% | 8.58% | 6.33% | -3.87%
11 | C=CCNC1=C2C[C@@H](C)C[C@H](OC)[C@H](O)[C@@H](C)/C=C(\C)[C@H](OC(N)=O)[C@@H](OC)/C=C\C=C(/C)C(=O)NC(=CC1=O)C2=O [Tanespimycin] (max concentration tested 10000 nM) | 19 | 22.4 | 15.9 | 16.7 | 20.8 ± 0.74 | 17.9 ± 1.3 | 21 | 22.2 | 22.6 | 5.08 | 17.9 | 19.1 | 14.6 ± 1.2 | 7.63 | 14 | 89.1% | 100% | 96.8% | 98.2% | 98 ± 0.1% | 99.25 ± 0.39% | 96.5% | 96.1% | 75.3%
12 | C[C@@H](C(=O)O)c1ccc(-c2ccccc2)c(F)c1 [Tarenflurbil] (max concentration tested 10000 nM) | 0 | 0 | 0 | 0 | 0 | 0 | 0 | 0 | 0 | 0 | 0 | 0 | 0.283 ± 0.4 | 0 | 0 | -1.84% | -4.22% | 1.66% | -6.06% | -1.93 ± 0.15% | -5.38 ± 11% | -0.223% | -0.273% | -2.65%
13 | CO[C@H]1C[C@@H]2CC[C@@H](C)[C@@](O)(O2)C(=O)C(=O)N2CCCC[C@H]2C(=O)O[C@H]([C@H](C)C[C@@H]2CC[C@@H](OC(=O)C(C)(CO)CO)[C@H](OC)C2)CC(=O)[C@H](C)/C=C(\C)[C@@H](O)[C@@H](OC)C(=O)[C@H](C)C[C@H](C)/C=C/C=C/C=C/1C [Temsirolimus] (max concentration tested 100 nM) | 7.73 | 5.67 | 17.5 | 16.5 | 7.14 ± 2.6 | 6.03 ± 0.88 | 6.83 | 14.4 | 9.18 | 0 | 0 | 0 | 0.915 ± 1.3 | 0 | 0 | 30.8% | 29.2% | 47% | 51.2% | 28.4 ± 1.3% | 31.8 ± 11% | 23.2% | 47.2% | 46.1%
